Test results taken from publication PMC5017749, “Preclinical Metabolism, Pharmacokinetics and In Vivo Analysis of New Blood-Brain-Barrier Penetrant Fingolimod Analogues: FTY720-C2 and FTY720-Mitoxy” (PLoS ONE, 2016).

Legend:
[1] = Metabolite profiling and identification in rat hepatocytes; assay type: in vitro ADME, rat (Sprague Dawley); design: key to Source (peak identified in rat hepatocytes): R = Rat; hr = Human; lowercase letter indicates low abundance; h: lowercase letter indicates low abundance; conditions: for phosphorylated metabolites / parent peak after 2 hr incubation: rat hepatocytes; for parent peak after 2 hr incubation: 1 μM
Procedure: Cryopreserved hepatocytes were grown in culture and incubations were performed to generate samples to measure the formation of FTY720-C2 and FTY720-Mitoxy metabolites. Incubations of 1 mL medium containing 1 million cells and 1 μM of FTY720-C2 and FTY720-Mitoxy were conducted at 37° C in a 5% CO2 incubator for 0, 1 and 2 hr, with gentle shaking. Positive control incubations used a cocktail solution containing 10 μM testosterone and 10 μM diclofenac performed for 0, 1 and 2 hr, under similar conditions to confirm the metabolic activity of the hepatocytes. The reactions were terminated by adding 2 mL acetonitrile containing 0.02% formic acid, and thoroughly mixing with gentle vortexing. Samples were transferred into 6 mL vials and stored in the freezer (-70°C) overnight for protein precipitation. Following overnight precipitations, samples were centrifuged at 3,000 rpm for 10 min to pellet proteins. Supernatants were transferred into clean 6 mL vials and evaporated to dryness using a TurboVap concentrator system. Samples were reconstituted using 600 μL 20% acetonitrile in water, briefly vortexed to resuspend, then aliquoted for LC-MS/MS analysis. Controls incubations also included “No drug control” and “no cell control” samples treated in a similar manner as test article samples.
Metabolite profiling and identification experiments were conducted by LC-MS/MS, composed of an HPLC system consisting of an Agilent Technologies 1200 Series Model G1322A Degasser, Agilent Technologies 1200 Series Model G1312A Binary Pump, Shimadzu HTc autosampler, and Valco Model E60 Flow Diversion Valve, and coupled to an API 4000 mass spectrometer. Separations were accomplished on a Gemini C18 column (150 × 2.0 mm, 5-μm particles; Phenomenex Inc., Torrance, CA), preceded by a SecurityGuard C18 guard column (4.0 × 2.0 mm; Phenomenex Inc.). A two-component mobile phase, consisted of a linear gradient of water containing 0.5% formic acid (v/v) and methanol:acetonitrile (1:1, v/v) containing 0.5% formic acid (v/v), was pumped at 0.3 mL/min. The first 4 min of flow was diverted away from the mass spectrometer. Analysis of the positive control samples was conducted with an HPLC system consisting of two Shimadzu LC-10ATvp pumps and a LEAP Pal autosampler. Separations were accomplished on a Luna C8(2) column (50 × 2.0 mm, 3-μm particles; Phenomenex Inc., Torrance, CA), preceded by a SecurityGuard C18 column (4.0 × 2.0 mm; Phenomenex Inc.). Separation was accomplished with a gradient of water containing 0.2% formic acid and 0.012% NH4OH (v/v) versus acetonitrile at an initial rate of 0.7 mL/min. An API 4000 QTrap mass spectrometer (AB Sciex, Foster City, CA) was used for analysis of positive control samples. Each mass spectrometer used was equipped with an electrospray ionization source and operated in the positive ionization mode. Metabolite identification experiments were performed by recording full scan mass spectral data (Q1MS) for all samples, and selected samples were analyzed to obtain product ion spectra (MS/MS) of test article metabolites identified in the full scan mass spectral data.

PP2A = experiment: Protein phosphatase (PP2A) assay in adrenal glands of treated mice; assay type: in vivo, male C57BL/6 mice; conditions: for increase of PP2A activity in mouse adrenal gland: as compared to untreated controls, route not given; for increase of PP2A activity in adrenal gland: up to 48 hr postdose, vs untreated control mice
Procedure: The objectives of this study were to evaluate the pharmacokinetic profiles of FTY720-C2 and FTY720-Mitoxy following single oral and intravenous (IV) dosing of male mice and to determine blood and tissue levels of both compounds at various postdose time points. Male C57BL/6 mice were 8.4 weeks of age and weighed 20.6–24.8 g on the day of dose administration. Each animal was identified by a unique number via an ear tag with a matching cage tag. Mice were administered (two mice per time point) a single equivalent molar dose of either FTY720-C2 (1 mg/kg) or FTY720-Mitoxy (2 mg/kg) by oral or intravenous administration. As the molecular weight of FTY720-Mitoxy (704.72 g/mol) is ~ two times greater than that of FTY720-C2 (349.51 g/mol), the dose level of FTY720-Mitoxy was double that of FTY720-C2. Details of the design showing group assignments, dose groups, dose levels, as well as blood collection and necropsy time points are shown in Table 2. At the appropriate time points after dosing and blood sample collection for bioanalysis, animals were euthanized by CO2 inhalation until unresponsive, followed by decapitation. Brains were rapidly harvested, rinsed with ice cold saline, blotted dry and bisected along the mid-line. The left and right hemispheres of the brain were weighed separately. Each was placed in separate tubes, immediately flash frozen in liquid nitrogen and stored at -70°C prior to evaluation. All samples were labeled with the test facility study number, animal identification number, dose group, date, collection interval, and tissue identity (left or right brain hemisphere). Adrenal glands from each mouse were also collected and flash frozen.
Adrenal glands from treated mice were homogenized in buffer containing 20 mM imidazole-HCl, 2 mM EDTA, 2 mM EGTA, plus protease inhibitors, at 4°C. The homogenates were centrifuged to remove particulates followed by free phosphate removal on MicrospinTM-G-25 columns (GE Healthcare). Aliquots of supernatants were incubated in 4-Nitrophenyl-phosphate (pNPP) buffer consisting of 50 mM Tris-HCl, pH 7.0, 0.1 mM CaCl2 with threonine-phosphopeptide (KRpTIRR) substrate. The reactions were run for 10 min at 30°C and stopped by placing samples on ice. Phosphate levels were determined by measuring absorbance at 650 nm using a Multiskan Spectrum plate reader (Thermo Scientific, Pittsburgh, PA) and were compared to freshly prepared standards as previously described, but using a malachite green solution prepared according to Fathi et al.. Samples from two mice per time point (n = 2) were assayed in triplicate to confirm technical fidelity.

| Compound | Source (peak identified in rat hepatocytes) ([1]; FTY720-Mitoxy incubation, Table 5) | phosphorylated metabolites [1] | parent peak after 2 hr incubation [1] | increase of PP2A activity in mouse adrenal gland (PP2A) | increase of PP2A activity in adrenal gland (PP2A; single oral dose (FTY720-C2 1 mg/kg, FTY720-Mitoxy 2 mg/kg)) | Source (peak identified in rat hepatocytes) ([1]; FTY720-C2 incubation, Table 4) | increase of PP2A activity in adrenal gland (PP2A; single IV dose (FTY720-C2 1 mg/kg, FTY720-Mitoxy 2 mg/kg)) |
| --- | --- | --- | --- | --- | --- | --- | --- |
| CCCCCCCCc1ccc(CCC(CO)(CO)NC(=O)CC[P+](c2ccccc2)(c2ccccc2)c2ccccc2)cc1 [FTY720-Mitoxy, N-(1-hydroxy-2-(hydroxymethyl)-4-(4-octylphenyl)butan-2-yl)-3’-triphenylphosphoniumpropanamide] | R | never detected | most FTY720-Mitoxy was still unchanged | ~ 2 fold | no stimulating effect |  |  |
| CCCCCCCCc1ccc(CCC(CO)(CO)NC(C)=O)cc1 [FTY720-C2, N-(1-hydroxy-2-(hydroxymethyl)-4-(4-octylphenyl)butan-2-yl)acetamide] |  | never detected | drastically diminished | ~ 2 fold |  | R | 2 fold |
